The values that follow come from patent US9714244B2, “Substituted pyrido[4,3-d]pyrimidines as Wee-1 inhibitors” (ALMAC DISCOVERY LIMITED, priority 2013, dated 2017).

The target of data set [1] is Wee-1 kinase (Homo sapiens (Human), UniProt P30291). In words: Measurement of Wee-1 kinase activity (ADP-Glo). The format is biochemical. How it is done:
Method 1: Measurement of Wee-1 kinase activity
In the measurement of Wee-1 activity, a commercial peptide Poly(Lys Tyr(4:1)) hydrobromide was purchased from Sigma Aldrich and used as the substrate. Activated Wee-1 kinase was purchased from Invitrogen (PV3817) and an ADP-Glo luminescent kit was purchased from Promega.
All reactions took place in […] volumes in reaction buffer containing 40 mM Tris-HCl and 20 mM magnesium chloride, supplemented with 0.1 mg/mL bovine serum albumin and 2 mM DTT. Compounds were serially diluted in buffer and 5 μL of each concentration pipetted into a white 384 well plate (Sigma Aldrich M6186). A 5 μL aliquot of the Wee-1 enzyme was added to each well and the plate centrifuged for 1 min to ensure mixing of the enzyme and inhibitor.
The plate was incubated at room temperature for 30 minutes before the addition of 2.0 μg/mL of substrate and 30 μM ATP in a 5 μL aliquot. The plate was centrifuged for one minute and incubated for 1 h at RT.
15 μL of ADP-Glo stop reagent was added to each well to quench the reaction and deplete unconverted ATP. The plate was incubated for a further 40 min in the dark at RT.
30 μL of ADP-Glo kinase detection reagent was added to each well, converting ADP to ATP, catalysing the generation of luciferin by luciferase. The plate was shaken for 1 min, and incubated in the dark for an additional hour.
Luminescence from each well was detected using the Biotek Synergy4 HD plate reader and the percentage inhibition of kinase activity calculated for each inhibitor tested. Positive (kinase only) and negative (no kinase) controls were added to each plate to ensure specific interaction of kinase and inhibitor. The IC50 concentration for each inhibitor was calculated by plotting the percentage kinase inhibition against concentration of inhibitor and the curve generated by non-linear regression fitting.

The target of data set [2] is human ether a go-go related gene (hERG) K+ channel (Homo sapiens (Human), UniProt Q12809). In words: hERG inhibition, IonWorks patch clamp electrophysiology. The format is cell-based. The conditions noted are these: 8-point curve from 11 μM. How it is done:
Compounds were tested for inhibition of the human ether a go-go related gene (hERG) K^+ channel using IonWorks patch clamp electrophysiology at Essen BioScience.

The nature of data set [3]: CLint estimates using human liver microsomes. The format is in vitro ADME. The note with it: pH 7.4, read-out: HLM activity (HLM CLint). How it is done:
Method for the Determination of CLint Estimates Using Human Liver Microsomes
Test compounds (final concentration=1 μM; final DMSO concentration=0.1%) were incubated in 0.1M phosphate buffer pH 7.4 with human liver microsomes (0.5 mg of protein/mL) at 37° C. Reactions were started by addition of NADPH in 0.1M phosphate buffer pH 7.4 (final concentration 1 mM). 40 μL aliquots were removed at 2, 5, 10, 15, 20, 30, 40 and 50 min. Reactions were quenched in 80 μL of ice-cold methanol. Samples were subsequently frozen overnight then centrifuged at 3500 rpm for 20 min at 4° C. The supernatants were removed and transferred into analytical plates and analysed by LC/MS/MS.
All samples were analysed on a Waters Acquity I-Class coupled to a Waters Xevo TQD mass spectrometer. A Waters BEH C18 2.1×50 mm 1.7 μm column was used and mobile phases were water and methanol containing 0.1% formic acid as modifier. Analysis was by multiple reaction monitoring and conditions were optimised for each test compound.
From a plot of ln peak area against time, the gradient of the line is determined. Subsequently, half-life and intrinsic clearance are calculated using the following equations.

The subject of data set [4] is phospho-cdc2 (Tyr15) in HT-29 cells. As to the kind of experiment: Effect on phosphorylation of cdc2 at Tyr15 in HT-29 cells (PathScan ELISA). It counts as cell-based. The note with it: Homo sapiens, HT-29, 8 h; HT29 cells, eight hours incubation; read-out: HT29 pCDC2 activity. The method, then:
Method 2: Determining the effect of compounds on the phosphorylation of cdc2 at Tyr15
The colorectal cancer cell lines HT-29 and HCT-116 were purchased from the ATCC and routinely maintained in McCoy's Medium (Invitrogen) supplemented with 10% Foetal Calf Serum.
The cells were trypsinised from their growing vessel and counted, 100 μL of cell suspension containing 6000 cells was pipetted into black 96 well Co-star plates and incubated overnight to allow adherence to the surface at a temperature of 37° C. and an atmosphere of 5% CO2. Test compounds were formulated in DMSO and diluted in foetal calf serum supplemented medium. Incubating medium was removed by aspiration and diluted drug supplemented medium added to each well.
The plate was returned to the incubator for an additional eight hours at 37° C. and an atmosphere of 5% CO2. Post incubation, the drug supplemented medium was aspirated from each well and the cells were washed once in ice-cold phosphate buffered saline (PBS). 100 μL of cell lysis buffer (Cell Signalling Technologies #9803) containing 20 mM Tris, 150 mM NaCl, 1 mM EDTA, 1 mM EGTA, 1% Triton-X100, 2.5 mM sodium pyrophosphate, 1 mM glycerophosphate, 1 mM Na3VO4 and 1 μg/mL leupeptin was added to each well of the 96 well plate and incubated at 4° C. for 30 min. The samples on the plate were snap frozen at −80° C. until required.
Immediately before the continuation of the assay, the sample plate was thawed and centrifuged at 4° C. for 10 min and the supernatant transferred to secondary tubes or 96 well plate.
Cell supernatant was mixed in a ratio of 1:1 with sample dilutent buffer and vortexed for one minute. 100 μL of diluted sample was pipetted into pre-coated plates containing a rabbit polyclonal antibody for phospho-cdc2 (Tyr15) (Cell Signalling Technologies PathScan kit #7176). The plate was sealed and incubated overnight at 4° C.
The plate seal was removed and the well contents aspirated, followed by 3×5 min washes with 200 μL of diluted wash buffer. Between each wash the plate was tapped firmly onto blotting paper to ensure the removal of all kit solution. 100 μL of kit detection antibody was added to each well and the plate re-sealed and incubated at 37° C. for 1 h. Post incubation the plate was washed and processed in a similar manner to that previously described.
100 μL of horseradish peroxidise-linked secondary antibody was added to each test well, the plate sealed and incubated for thirty minutes at 37° C. Post incubation, the plate was washed as previously stated, followed by the addition of 100 μL of 3,3′,5,5′ tetramethylbenzidine (TMB reagent). The plate was sealed and incubated at RT for 30 min.
100 μL of stop solution was added to each well and the underside of the plate wiped with a lint-free tissue, prior to spectrophotometric determination. Absorbance from each well was read at 450 nm within 30 min of the addition of the stop solution.
The percentage of phospho-cdc2 was calculated compared to DMSO control and plotted versus the concentration of inhibitor using GraphPad Prism. Data was fitted using non-linear regression analysis and IC50 values generated.

A short description of data set [5]: Human hepatocyte assay CLint. The format is in vitro ADME. The conditions noted are these: hepatocytes. How it is done: (§1) Compounds of the present invention have good stability in human and/or rat hepatocyte incubations. In particular, representative examples 7, 8, 13, 18, 20 have CLint of <20 μL/min/10^6 cells in a human hepatocyte assay and/or <40 μL/min/10^6 cells in a rat hepatocyte assay.

Data set [6] is described as follows: Rat hepatocyte assay CLint. The format is in vitro ADME. The note with it: hepatocytes. How it is done:
as §1

A short description of data set [7]: Oral bioavailability in rat. The conditions noted are these: in vivo. An excerpt:
Compounds of the present invention are orally bioavailable.

Counter-ions that a name gives are not always drawn. Like-named read-outs stand apart in the source and are kept apart here.

human ether a go-go related gene (hERG) K+ channel, sequence (Q12809 whole entry): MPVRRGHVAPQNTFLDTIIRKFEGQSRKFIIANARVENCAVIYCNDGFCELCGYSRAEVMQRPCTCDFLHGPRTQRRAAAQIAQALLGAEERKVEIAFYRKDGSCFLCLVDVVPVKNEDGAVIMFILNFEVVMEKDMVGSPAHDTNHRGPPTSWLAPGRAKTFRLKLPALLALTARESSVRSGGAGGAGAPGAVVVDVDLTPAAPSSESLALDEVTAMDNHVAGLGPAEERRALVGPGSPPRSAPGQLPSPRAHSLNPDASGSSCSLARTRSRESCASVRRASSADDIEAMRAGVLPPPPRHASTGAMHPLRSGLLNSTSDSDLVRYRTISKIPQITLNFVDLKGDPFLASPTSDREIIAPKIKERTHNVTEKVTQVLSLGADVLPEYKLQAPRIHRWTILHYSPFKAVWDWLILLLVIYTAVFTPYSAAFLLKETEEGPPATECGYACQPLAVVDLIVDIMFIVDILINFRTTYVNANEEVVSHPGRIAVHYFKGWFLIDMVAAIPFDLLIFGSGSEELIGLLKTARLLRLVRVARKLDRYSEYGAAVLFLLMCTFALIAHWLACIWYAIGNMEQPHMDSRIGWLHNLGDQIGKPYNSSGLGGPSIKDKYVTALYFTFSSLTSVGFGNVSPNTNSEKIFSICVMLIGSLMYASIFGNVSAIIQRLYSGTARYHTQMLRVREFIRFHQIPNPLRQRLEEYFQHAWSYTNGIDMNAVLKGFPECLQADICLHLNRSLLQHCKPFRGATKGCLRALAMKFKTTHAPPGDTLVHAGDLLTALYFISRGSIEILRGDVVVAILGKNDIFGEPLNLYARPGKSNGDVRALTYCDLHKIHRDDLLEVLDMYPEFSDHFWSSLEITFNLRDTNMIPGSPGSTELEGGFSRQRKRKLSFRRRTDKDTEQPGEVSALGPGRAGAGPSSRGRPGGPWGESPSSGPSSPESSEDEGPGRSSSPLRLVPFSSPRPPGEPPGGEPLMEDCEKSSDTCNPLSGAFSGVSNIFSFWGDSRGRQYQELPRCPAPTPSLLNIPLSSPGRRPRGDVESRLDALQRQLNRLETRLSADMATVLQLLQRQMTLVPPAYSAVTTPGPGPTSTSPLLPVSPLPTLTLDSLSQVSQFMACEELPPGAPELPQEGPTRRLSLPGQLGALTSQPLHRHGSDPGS
Wee-1 kinase, sequence (P30291 whole entry): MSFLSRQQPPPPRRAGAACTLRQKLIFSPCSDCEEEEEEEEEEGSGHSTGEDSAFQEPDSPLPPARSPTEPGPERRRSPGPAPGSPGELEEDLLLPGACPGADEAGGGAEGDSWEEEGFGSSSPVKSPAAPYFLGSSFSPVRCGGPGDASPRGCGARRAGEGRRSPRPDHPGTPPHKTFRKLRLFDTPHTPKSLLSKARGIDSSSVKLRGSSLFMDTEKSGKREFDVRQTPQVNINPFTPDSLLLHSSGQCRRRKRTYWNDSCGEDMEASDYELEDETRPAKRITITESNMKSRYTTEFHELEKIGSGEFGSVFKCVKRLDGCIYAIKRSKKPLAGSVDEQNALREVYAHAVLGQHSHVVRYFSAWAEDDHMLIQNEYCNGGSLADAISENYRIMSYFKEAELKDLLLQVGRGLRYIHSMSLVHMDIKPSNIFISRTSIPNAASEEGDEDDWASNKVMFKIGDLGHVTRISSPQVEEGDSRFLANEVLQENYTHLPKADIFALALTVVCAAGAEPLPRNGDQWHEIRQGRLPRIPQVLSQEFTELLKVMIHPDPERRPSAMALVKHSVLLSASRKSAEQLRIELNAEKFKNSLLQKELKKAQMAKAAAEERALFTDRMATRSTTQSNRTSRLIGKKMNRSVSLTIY

As to `CN(C)CCc1ccc(Nc2ncc3c(=O)n(-c4c(Cl)cccc4Cl)ccc3n2)cc1` [Example 11, 6-(2,6-Dichlorophenyl)-2-((4-(2-(dimethylamino)ethyl)phenyl)amino)pyrido[4,3-d]pyrimidin-5(6H)-one, HCl], the IC50 in data set [1] (read-out: Wee-1 IC50 activity) lay within 10 to 200 nM; in data set [2], 1000 to 10000 nM; in data set [4] it was 100 to 1000 nM. Further, the microsomal CLint at 1 μM in data set [3] is greater than 20 µL/min/mg.
Turning to `CN1CCN(c2ccc(Nc3ncc4c(=O)n(-c5c(Cl)cccc5Cl)ccc4n3)cc2CO)CC1` [Example 8, 6-(2,6-Dichlorophenyl)-2-((3-(hydroxymethyl)-4-(4-methylpiperazin-1-yl)phenyl)amino)pyrido[4,3-d]pyrimidin-5(6H)-one], the IC50 was less than 10 nM in data set [1] (read-out: Wee-1 IC50 activity) and 100 to 1000 nM in data set [4]. The hepatocyte CLint in data set [5] was less than 20 µL/min/1e6 cells; in data set [6], less than 40 µL/min/1e6 cells. The microsomal CLint at 1 μM in data set [3] was no more than 20 µL/min/mg.
For `Cc1cc(Nc2ncc3c(=O)n(-c4c(Cl)cccc4Cl)ccc3n2)ccc1N1CCNCC1` [Example 7, 6-(2,6-Dichlorophenyl)-2-((3-methyl-4-(piperazin-1-yl)phenyl)amino)pyrido[4,3-d]pyrimidin-5(6H)-one], the IC50 was less than 10 nM in data set [1] (read-out: Wee-1 IC50 activity), 1000 to 10000 nM in data set [2] and no more than 100 nM in data set [4]. Besides, the hepatocyte CLint in data set [5] was less than 20 µL/min/1e6 cells; in data set [6], less than 40 µL/min/1e6 cells. The bioavailability in data set [7] is greater than 25%. Moreover, the microsomal CLint at 1 μM in data set [3] is no more than 20 µL/min/mg.
For `COc1cc(Nc2ncc3c(=O)n(-c4c(Cl)cccc4Cl)ccc3n2)ccc1N1CCN(C)CC1` [Example 12, 6-(2,6-Dichlorophenyl)-2-((3-methoxy-4-(4-methylpiperazin-1-yl)phenyl)amino)pyrido[4,3-d]pyrimidin-5(6H)-one, HCl], the values for the IC50 in data set [1], in data set [2] and in data set [4] were 10 to 200 nM, 1000 to 10000 nM and no more than 100 nM, respectively. For the same compound, the microsomal CLint at 1 μM in data set [3] is greater than 20 µL/min/mg.
Turning to `O=c1c2cnc(Nc3ccc(N4CCOCC4)cc3)nc2ccn1-c1c(Cl)cccc1Cl` [Example 19, 6-(2,6-Dichlorophenyl)-2-((4-morpholinophenyl)amino)pyrido[4,3-d]pyrimidin-5(6H)-one], the IC50 was 10 to 200 nM in data set [1], no less than 10000 nM in data set [2] and no less than 1000 nM in data set [4]. Further, the microsomal CLint at 1 μM in data set [3] was greater than 20 µL/min/mg.
As for `Cc1cn(-c2c(Cl)cccc2Cl)c(=O)c2cnc(Nc3ccc(N4CCNCC4)cc3)nc12` [Example 2, 6-(2,6-Dichlorophenyl)-8-methyl-2-((4-(piperazin-1-yl)phenyl)amino)pyrido[4,3-d]pyrimidin-5(6H)-one], the figures for the IC50 in data set [1] (read-out: Wee-1 IC50 activity), in data set [2] and in data set [4] were less than 10 nM, no less than 10000 nM and 100 to 1000 nM, respectively. For the same compound, in data set [3], the microsomal CLint at 1 μM was no more than 20 µL/min/mg.
For the compound `O=c1c2cnc(Nc3ccc(N4CCNCC4)c(CO)c3)nc2ccn1-c1c(Cl)cccc1Cl` [Example 18, 6-(2,6-Dichlorophenyl)-2-((3-(hydroxymethyl)-4-(piperazin-1-yl)phenyl)amino)pyrido[4,3-d]pyrimidin-5(6H)-one], the values for the IC50 in data set [1] (read-out: Wee-1 IC50 activity), in data set [2] and in data set [4] were less than 10 nM, no less than 10000 nM and no more than 100 nM, respectively. In addition, the results for the hepatocyte CLint in data set [5] and in data set [6] were less than 20 µL/min/1e6 cells and less than 40 µL/min/1e6 cells, respectively. Also, the microsomal CLint at 1 μM in data set [3] is no more than 20 µL/min/mg.
Consider `CN1CCC(c2ccc(Nc3ncc4c(=O)n(-c5c(Cl)cccc5Cl)ccc4n3)cc2)CC1` [Example 10, 6-(2,6-Dichlorophenyl)-2-((4-(1-methylpiperidin-4-yl)phenyl)amino)pyrido[4,3-d]pyrimidin-5(6H)-one, HCl], for which the IC50 was less than 10 nM in data set [1] (read-out: Wee-1 IC50 activity), 1000 to 10000 nM in data set [2] and 100 to 1000 nM in data set [4]. In addition, in data set [3], the microsomal CLint at 1 μM is no more than 20 µL/min/mg.
Take `CNCCOc1ccc(Nc2ncc3c(=O)n(-c4c(Cl)cccc4Cl)ccc3n2)cc1` [Example 16, 6-(2,6-Dichlorophenyl)-2-((4-(2-(methylamino)ethoxy)phenyl)amino)pyrido[4,3-d]pyrimidin-5(6H)-one, HCl]: the IC50 in data set [1] is 10 to 200 nM; in data set [2] it was no less than 10000 nM; in data set [4], 100 to 1000 nM. For the same compound, the microsomal CLint at 1 μM in data set [3] was no more than 20 µL/min/mg.
For `Cc1cc(Nc2ncc3c(=O)n(-c4c(Cl)cccc4Cl)cc(C#CCO)c3n2)ccc1N1CCNCC1` [Example 14, 6-(2,6-Dichlorophenyl)-8-(3-hydroxyprop-1-yn-1-yl)-2-((3-methyl-4-(piperazin-1-yl)phenyl)amino)pyrido[4,3-d]pyrimidin-5(6H)-one], the IC50 is less than 10 nM in data set [1] (read-out: Wee-1 IC50 activity) and no more than 100 nM in data set [4]. Further, the microsomal CLint at 1 μM in data set [3] is no more than 20 µL/min/mg.
As to `O=c1c2cnc(Nc3ccc(N4CCN(CCO)CC4)cc3)nc2ccn1-c1c(Cl)cccc1Cl` [Example 21, 6-(2,6-Dichlorophenyl)-2-((4-(4-(2-hydroxyethyl)piperazin-1-yl)phenyl)amino)pyrido[4,3-d]pyrimidin-5(6H)-one], the IC50 in data set [1] (read-out: Wee-1 IC50 activity) is less than 10 nM; in data set [4] it was no more than 100 nM. Moreover, the microsomal CLint at 1 μM in data set [3] was greater than 20 µL/min/mg.
With `CC(C)N1CCN(c2ccc(Nc3ncc4c(=O)n(-c5c(Cl)cccc5Cl)ccc4n3)cc2)CC1` [Example 17, 6-(2,6-Dichlorophenyl)-2-((4-(4-isopropylpiperazin-1-yl)phenyl)amino)pyrido[4,3-d]pyrimidin-5(6H)-one], the IC50 in data set [1] (read-out: Wee-1 IC50 activity) fell in the range of 10 to 200 nM; in data set [2], 1000 to 10000 nM; in data set [4] it was 100 to 1000 nM. For the same compound, in data set [3], the microsomal CLint at 1 μM was greater than 20 µL/min/mg.

In general, hepatocyte CLint refers to a measure of how fast metabolising enzymes remove a compound, apart from limits set by blood flow. As usually defined, the bioavailability is the share of a dose that reaches the circulation, judged against a reference dose that is usually intravenous. A higher bioavailability goes with good availability.
